The text below walks through data of US10433544B2, “Herbicide” (University of Kentucky Research Foundation, priority 2017, dated 2019).

The test system of assay [1] is seed germination of numerous plant species. As to the kind of experiment: Ribitol toxicity effect on seed germination, numerous plant species. The format is in vivo. As to conditions: ribitol with no adjuvant. The source says: An increasing number of species have been identified as bearing the SDH gene and activity (Jia et al., […]), so most weed species could likely metabolize it.

The subject of assay [2] is seed of alfalfa, dandelion and mixed grasses. Kind of assay: Seed germination in 300 mM solutions of fructose and polyols (FIG. 1). As to conditions: ribitol/xylitol 150 mM + 150 mM, 8 days of incubation. It counts as in vivo. The protocol: FIG. 1 includes a chart showing the effect of 300 mM solutions of fructose and polyols, and a 150 mM ribitol plus 150 mM xylitol (R+X) formulation on seed germination. Means±standard deviation are across alfalfa, dandelion and mixed grasses after 8 days of incubation.
Seed of several species were incubated with 300 mM solutions of fructose, inositol, sorbitol, ribitol, xylitol as well as a ribitol/xylitol solution.

A further assay deals with seed of turfgrass. As to the kind of experiment: Turfgrass seed germination in xylitol, ribitol and ribitol/xylitol solutions (FIG. 2A). As to conditions: total concentrations 100 to 300 mM, 10 days. It counts as in vivo. The protocol:
(§1) FIG. 2 includes images of grass (A) and Dutch white clover (B) seed germination after 10 days in solutions of xylitol alone, ribitol alone, and xylitol+ribitol, at total concentrations of 100 to 300 mM (grass) or 100 to 400 mM (clover).
(§2) Seed of turfgrass (FIG. 2A) and Dutch white clover (FIG. 2B) were incubated with solutions of xylitol, ribitol, and a ribitol/xylitol solution at 100 to 300 mM (A) or 100 to 400 mM (B). […] The clover seed was in developmental arrest at 400 mM ribitol and 300 mM ribitol/xylitol.

Assay [3] relates to seed of Dutch white clover. As to the kind of experiment: Dutch white clover seed germination in xylitol, ribitol and ribitol/xylitol solutions (FIG. 2B). As to conditions: total concentrations 100 to 400 mM, 10 days. It counts as in vivo. As for the experimental part:
as §1, §2

The test system of assay [4] is growing plants of several weed species, including clover and pigweed. Kind of assay: Container studies, application to growing plants of several weed species (FIG. 3). As to conditions: for effect of application on growing plants: 300 mM total concentration, twice a week for 2 weeks; for rank order of the effect / severity of effect across species: 300 mM; for rank order of the effect: injury and death of growing plants; for severity of effect across species: container studies. It counts as in vivo, white clover and pigweed. As for the experimental part: FIG. 3 includes images showing the effect of application of selected sugars and polyols twice a week for 2 weeks to white clover (A) and pigweed (B) plants.
(§3) In container studies, fructose, inositol, sorbitol, ribitol, xylitol as well as a ribitol/xylitol solution were applied at 300 mM total concentration to plants including white clover and pigweed. […] Other common sugars like glucose and fructose had no effect. […] Due to the desire for a broad spectrum herbicide that affected both seed germination and plant growth the most, and to keep the most expensive component, ribitol, to a low effective level, we concluded that the 150 mM ribitol/150 mM xylitol formulation (300 mM combined concentration) was the optimum for field tests.

A further assay concerns dandelion plants. As to the kind of experiment: Container studies, spraying of dandelion plants (FIG. 4). The following applies: 300 mm, ribitol+xylitol each at 150 mM, sprayed twice weekly for 2 weeks. The format is in vivo. As for the experimental part:
FIG. 4 includes images showing the effect of application of […] fructose, glucose, sorbitol, ribitol, xylitol, or ribitol+xylitol (each at 150 mM) twice weekly for 2 weeks on dandelion plants.
as §3

Assay [5] concerns wild type Arabidopsis seeds. As to the kind of experiment: Seed germination with ribitol and SDH specific inhibitor (FIG. 8), Arabidopsis. It counts as in vivo. The following applies: 150 mM ribitol, 0.5 mM CP-470711, six days. The protocol: (§4) FIG. 8 includes images showing the effect of blocking SDH activity with (A) water (B) 150 mM ribitol (C) the SDH-specific inhibitor CP-470711(Pfizer) and (D) ribitol+CP-470711 on sensitivity of seed germination of Wild Type Arabidopsis, tomato, and rice for 6 days.
(§5) The effect of blocking SDH activity with an SDH specific inhibitor was explored with application to wild type Arabidopsis, tomato and rice seeds for six days. […] Each compound alone at the same concentration had no effect.

The subject of a further assay is tomato seeds. Kind of assay: Seed germination with ribitol and SDH specific inhibitor (FIG. 8), tomato. The format is in vivo. The following applies: 150 mM ribitol, 0.5 mM CP-470711, six days. The protocol:
as §4, §5

For the next assay, the system named is rice seeds. As to the kind of experiment: Seed germination with ribitol and SDH specific inhibitor (FIG. 8), rice. The following applies: 150 mM ribitol, 0.5 mM CP-470711, six days. It counts as in vivo. As for the experimental part:
as §4, §5

Assay [6] has as its system sdh-knockout mutant plants and Wild Type plants. The following applies: 50 mM ribitol, cited from earlier work.
Another assay concerns seed germination. As to conditions: when it cannot be metabolized properly; cited from earlier work.
In assay [7] the target is T1, sorbitol dehydrogenase (SDH) (Ovis aries, UniProt P07846).
T1 sequence (P07846 1-354): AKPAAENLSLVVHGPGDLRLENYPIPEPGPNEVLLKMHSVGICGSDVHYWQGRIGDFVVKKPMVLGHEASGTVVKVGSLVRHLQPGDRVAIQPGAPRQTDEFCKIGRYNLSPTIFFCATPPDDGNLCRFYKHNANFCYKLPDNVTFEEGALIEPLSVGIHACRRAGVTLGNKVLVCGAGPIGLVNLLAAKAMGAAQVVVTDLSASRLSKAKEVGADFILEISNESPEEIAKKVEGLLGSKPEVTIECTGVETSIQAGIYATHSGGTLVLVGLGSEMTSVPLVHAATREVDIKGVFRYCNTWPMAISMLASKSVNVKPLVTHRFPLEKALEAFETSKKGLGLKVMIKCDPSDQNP
The following applies: cited from earlier work.

As to `OC[C@@H](O)[C@@H](O)[C@@H](O)CO` [ribitol], the “ribitol concentration at which toxicity effect on seed germination occurred” value in assay [1] is listed as no less than 300 mM. Further, in assay [2], the “inhibition of seed germination” value is on record as “only significantly inhibited by the ribitol/xylitol solution”. Besides, in the assay with seed of turfgrass, the “concentration at which grass seed was significantly inhibited” value is reported as 300 mM. The “concentration at which clover seed was in developmental arrest” value in assay [3] turned out to be 400 mM. Also, in assay [4], the “effect of application on growing plants” value was “caused injury and death”. For the same compound, in [4], the “rank order of the effect” value is “sorbitol<xylitol≤ribitol”. In the assay on dandelion plants, the “effect on dandelion plants” value is “death of plants”. The “effect on seed germination” value in assay [5] was “no effect”; in the assay on tomato seeds, “no effect”; in the assay with rice seeds, “no effect”; with seed germination it was “inhibited seed germination”. Further, the “effect of application on Wild Type plants” value in assay [6] (Wild Type plants) is “no effect”. The “effect of application on sdh-knockout mutant plants” value in assay [6] (well-watered sdh-knockout mutant plants) is “quick injury and eventual death”.
With `O[C@H]1[C@H](O)[C@@H](O)[C@H](O)[C@@H](O)[C@H]1O` [inositol, reference compound], the “inhibition of seed germination” value in assay [2] is given as “only significantly inhibited by the ribitol/xylitol solution”.
For `OC[C@@H](O)[C@@H](O)[C@H](O)[C@@H](O)CO` [sorbitol], the “inhibition of seed germination” value in assay [2] was “only significantly inhibited by the ribitol/xylitol solution”. For the same compound, in assay [4], the “effect of application on growing plants” value is “caused injury and death”; the “severity of effect across species” value is given as “caused damage”; the “rank order of the effect” value is recorded as “sorbitol<xylitol≤ribitol”.
On to `SCc1ccccc1` [1-thio-1-phenylmethane], for which the SDH inhibition result in assay [7] is given as “effective SDH inhibitors”.
With `O=C(CO)[C@@H](O)[C@H](O)[C@H](O)CO` [fructose, reference compound], in assay [2], the “inhibition of seed germination” value is “only significantly inhibited by the ribitol/xylitol solution”. In [4], the “effect of application on growing plants” value is given as “no effect”.
For the compound `OC[C@@H](O)[C@H](O)[C@@H](O)CO` [xylitol], the “inhibition of seed germination” value in assay [2] is recorded as “only significantly inhibited by the ribitol/xylitol solution”. Also, in assay [4], the “effect of application on growing plants” value is “caused injury and death”; the “severity of effect across species” value is reported as “caused damage”; the “rank order of the effect” value was “sorbitol<xylitol≤ribitol”. In addition, the “effect on dandelion plants” value in the assay with dandelion plants is “death of plants”.
For `SCCc1ccccc1` [1-thio-2-phenylethane], in [7], the SDH inhibition result is “effective SDH inhibitors”.
